Experiment [1] has as its target T1, 5-LO (Homo sapiens, UniProt P09917).
T1 construct: incubating a test compound with heparinised human blood, prior to challenge with the calcium ionophore A23187; endogenous in cells; host or cells: heparinised human whole blood (blood cells)
T1 sequence (P09917 1-674): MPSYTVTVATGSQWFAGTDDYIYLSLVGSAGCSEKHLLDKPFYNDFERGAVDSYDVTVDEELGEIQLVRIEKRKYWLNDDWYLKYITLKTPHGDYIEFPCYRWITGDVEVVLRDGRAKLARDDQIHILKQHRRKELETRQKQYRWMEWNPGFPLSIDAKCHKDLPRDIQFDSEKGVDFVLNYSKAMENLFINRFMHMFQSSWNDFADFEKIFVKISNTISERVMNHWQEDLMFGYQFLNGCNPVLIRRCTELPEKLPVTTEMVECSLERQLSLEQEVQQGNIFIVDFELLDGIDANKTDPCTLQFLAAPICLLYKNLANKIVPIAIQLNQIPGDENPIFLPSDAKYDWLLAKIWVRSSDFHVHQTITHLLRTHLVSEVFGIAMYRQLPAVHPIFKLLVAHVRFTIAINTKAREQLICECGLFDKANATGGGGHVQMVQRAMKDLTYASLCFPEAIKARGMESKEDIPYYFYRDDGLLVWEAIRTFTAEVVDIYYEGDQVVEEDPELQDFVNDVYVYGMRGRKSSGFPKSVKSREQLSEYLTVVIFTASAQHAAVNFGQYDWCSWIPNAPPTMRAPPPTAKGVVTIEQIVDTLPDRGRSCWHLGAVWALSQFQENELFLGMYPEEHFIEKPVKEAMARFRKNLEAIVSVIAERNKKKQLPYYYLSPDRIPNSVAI
Kind of experiment: Test a): in vitro heparinised human blood challenged with calcium ionophore A23187, radioimmunoassay of LTB₄. The following applies: A23187 challenge, read-out: IC₅₀ against LTB₄ in test (a). Format: cell-based. An excerpt:
As stated previously, the compounds of the formula I are inhibitors of the enzyme 5-LO. […] J. Pharmacol. 1985, 84, 34P) which involve the use of a protein-LTB₄ conjugate produced using the procedure of Young et alia (Prostaglandins, 1983, 26(4), 605-613). The effects of a test compound on the enzyme cyclooxygenase (which is involved in the alternative metabolic pathway for arachidonic acid and gives rise to prostaglandins, thromboxanes and related metabolites) may be measured at the same time using the specific radioimmunoassay for thromboxane B₂(TxB₂) described by Carey and Forder (see above). This test provides an indication of the effects of a test compound against 5-LO and also cyclooxygenase in the presence of blood cells and proteins. It permits the selectivity of the inhibitory effect on 5-LO or cyclooxygenase to be assessed. • b) An ex vivo assay system, which is a variation of test a) above, involving administration to a group of rats of a test compound (usually orally as the suspension produced when a solution of the test compound in dimethylsulphoxide is added to carboxymethylcellulose), blood collection, heparinisation, challenge with A23187 and radioimmunoassay of LTB₄ and TxB₂. This test provides an indication of the bioavailability of a test compound as an inhibitor of 5-LO or cyclooxygenase. • c) An in vivo system involving measuring the effects of a test compound administered orally against the liberation of LTB₄ induced by zymosan within an air pouch generated within the subcutaneous tissue of the back of male rats. The rats are anaesthetised and air pouches are formed by the injection of sterile air (20ml). A further injection of air (10ml) is similarly given after 3 days. At 6 days after the initial air injection the test compound is administered (usually orally as the suspension produced when a solution of the test compound in dimethylsulphoxide is added to hydroxypropylmethylcellulose), followed by the intrapouch injection of zymosan (1ml of a 1% suspension in physiological saline). After 3 hours the rats are killed, the air pouches are lavaged with physiological saline, and the specific radioimmunoassay described above is used to assay LTB₄ in the washings. This test provides an indication of inhibitory effects against 5-LO in an inflammatory milieu.

Experiment [2] concerns 5-LO. Nature of the experiment: Test c): in vivo zymosan-induced LTB₄ liberation in subcutaneous air pouch. The following applies: oral, male rats, 3 hours. An excerpt:
As stated previously, the compounds of the formula I are inhibitors of the enzyme 5-LO. […] J. Pharmacol. 1985, 84, 34P) which involve the use of a protein-LTB₄ conjugate produced using the procedure of Young et alia (Prostaglandins, 1983, 26(4), 605-613). The effects of a test compound on the enzyme cyclooxygenase (which is involved in the alternative metabolic pathway for arachidonic acid and gives rise to prostaglandins, thromboxanes and related metabolites) may be measured at the same time using the specific radioimmunoassay for thromboxane B₂(TxB₂) described by Carey and Forder (see above). This test provides an indication of the effects of a test compound against 5-LO and also cyclooxygenase in the presence of blood cells and proteins. It permits the selectivity of the inhibitory effect on 5-LO or cyclooxygenase to be assessed. • b) An ex vivo assay system, which is a variation of test a) above, involving administration to a group of rats of a test compound (usually orally as the suspension produced when a solution of the test compound in dimethylsulphoxide is added to carboxymethylcellulose), blood collection, heparinisation, challenge with A23187 and radioimmunoassay of LTB₄ and TxB₂. […]

pIC50: −log10 of the molar value.

For `COC1(c2cccc(OCc3ccc4ccccc4c3)c2)CCN(C)C1` (stereo not shown) [Example 1, 3-methoxy-1-methyl-3-[3-(naphth-2-ylmethoxy)phenyl]pyrrolidine], the pIC50 at 5-LO [1] was 6.68. `C#CCN1CCC(OC)(c2cccc(OCc3ccc4ccccc4c3)c2)C1` (stereo not shown) [Example 4, 3-methoxy-3-[3-(naphth-2-ylmethoxy)phenyl]-1-(prop-2-ynyl)pyrrolidine]: the pIC50 at 5-LO [1] was 7.22.

With `CCn1c(=O)ccc2cc(COc3cccc(C4(OC)CCN(CC(F)(F)F)C4)c3)ccc21` (stereo not shown) [Example 5, 3-[3-(1-ethyl-2-oxo-1,2-dihydroquinolin-6-ylmethoxy)phenyl]-3-methoxy-1-(2,2,2-trifluoroethyl)pyrrolidine], the pIC50 at 5-LO [1] is 7.05. In the case of `COC1(c2cc(F)cc(Sc3ccc4c(c3)CCC(=O)N4C)c2)CCN(CC(F)(F)F)C1` (stereo not shown) [Example 6, 3-[5-fluoro-3-(1-methyl-2-oxo-1,2,3,4-tetrahydroquinolin-6-ylthio)phenyl]-3-methoxy-1-(2,2,2-trifluoroethyl)pyrrolidine], the pIC50 on 5-LO [1] was 7.52. Moreover, in the experiment on 5-LO [2], the “ED₅₀ versus LTB₄ in test (c)” value is listed as “approximately 1.5 mg/kg”. For `COC1(c2cc(F)cc(Sc3ccc(C(C)=NO)cc3)c2)CCN(CC(F)(F)F)C1` (stereo not shown) [Example 32, 3-{5-fluoro-3-[4-(1-hydroxyiminoethyl)phenylthio]phenyl}-3-methoxy-1-(2,2,2-trifluoroethyl)pyrrolidine], in that order: 7.40 and “approximately 0.5 mg/kg”.

Values taken from patent publication EP0586229A1, “3-Hydroxy-3-(subst-akyl)-pyrrolidines as 5-lipoxygenase inhibitors” (ZENECA LIMITED, priority 1992, dated 1994).
